Source: publication PMC8900824, “Interactions between 2′-fluoro-(carbamoylpyridinyl)deschloroepibatidine analogues and acetylcholine-binding protein inform on potent antagonist activity against nicotinic receptors” (Acta Crystallographica. Section D, Structural Biology, 2022)
Values joined by “and” are separate entries in the source; they are usually repeats but may differ in a detail not shown here. Equal entries are not always repeated. Where two headings read alike, the source gives them in different places.

Legend:
AcAChBP [1] = biological target: T1, AcAChBP (Aplysia californica, UniProt Q8WSF8, A155V/A60V); assay: Kd determination by biolayer interferometry (BLI) on immobilized AcAChBP; format: binding; settings: 25°C, values with standard errors
T1 construct: made in house; host or cells: Spodoptera frugiperda (Sf9) cells, baculovirus (Bac-to-Bac)
Procedure: The K d values of compounds 1–6 were determined using an Octet RED system (Forté-Bio). AcAChBP (0.5 mg ml^−1 in buffer A) was immobilized on Ni^2+–NTA sensors for 600 s, followed by the removal of non-immobilized protein (600 s) and baseline stabilization (120 s). Association and dissociation measurements were obtained at 25°C for six concentrations of each compound (1.7–410 nM) diluted in buffer A plus 1% DMSO. BLI assays were conducted with a baseline measurement in buffer (60 s), an association measurement in the well containing the compound (120 s) and a dissociation measurement in buffer (120 s). Data processing and analysis were performed with Octet RED Data Analysis version 7.1 (Forté-Bio), where the background response of immobilized AcAChBP in buffer was subtracted.

α4β2 nAChR = settings: cited from earlier work
recombinant α4β2 nAChR = settings: recombinant receptor, electrophysiology; ref Ondachi et al., 2016; cited from earlier work
homomeric α7 nAChR = settings: ref Ondachi et al., 2016, cited from earlier work; for agonist/antagonist effect on α7 nAChR: homomeric α7
[2] = test system: nicotine-induced antinociception; settings: in vivo; ref Ondachi et al., 2016; cited from earlier work
AcAChBP [3] = biological target: T1, AcAChBP; set-up: method as in Hansen et al., 2005; settings: read-out: AcAChBP, Kd; tryptophan fluorescence-quenching assay; ref Hansen et al., 2005; cited from earlier work
recombinant α3β4 nAChR = settings: recombinant receptor, electrophysiology; ref Ondachi et al., 2016; cited from earlier work
AcAChBP [4] = biological target: T1, AcAChBP; settings: read-out: AcAChBP, Kd; isothermal titration calorimetry; ref Rucktooa et al., 2012; cited from earlier work
[5] = [3H]-epibatidine competition assay, values with standard errors, ref Ondachi et al., 2016

T1 sequence (Q8WSF8 entry or part of it A60V/A155V): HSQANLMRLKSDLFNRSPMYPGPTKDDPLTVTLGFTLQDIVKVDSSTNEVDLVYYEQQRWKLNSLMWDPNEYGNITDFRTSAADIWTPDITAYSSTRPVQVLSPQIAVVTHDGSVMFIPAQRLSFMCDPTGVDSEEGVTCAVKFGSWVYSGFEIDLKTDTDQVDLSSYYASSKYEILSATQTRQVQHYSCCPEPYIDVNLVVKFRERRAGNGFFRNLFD

Compound | Kd (AcAChBP [1]) | agonist activity on α4β2 nAChR (recombinant α4β2 nAChR) | agonist/antagonist effect on α7 nAChR (homomeric α7 nAChR) | Ki (α4β2 nAChR; [5]) | other results
NC(=O)c1ccc(-c2cc(C3CC4CCC3N4)cnc2F)cc1 (centres unmarked) [Compound 1] | 9.8 ± 0.03 nM | mixed partial agonists | agonists |  | Ki (α4β2 nAChR): 0.12 ± 0.02 nM
NC(=O)c1ccnc(-c2cc(C3CC4CCC3N4)cnc2F)c1 (centres unmarked) [Compound 2] | 60 ± 0.14 nM |  | only an antagonist | 0.28 ± 0.01 nM | AcAChBP, Kd (AcAChBP [1]): lowest affinity; antagonism of the antinociceptive action of nicotine [2]: a potency approaching that of varenicline
NC(=O)c1ccc(-c2cc(C3CC4CCC3N4)cnc2F)nc1 (centres unmarked) [Compound 3] | 29 ± 0.05 nM | mixed partial agonists | agonists | 0.94 ± 0.07 nM | 
NC(=O)c1ccc(-c2cc(C3CC4CCC3N4)cnc2F)cn1 (centres unmarked) [Compound 4] | 33 ± 0.08 nM |  |  | 0.07 ± 0.002 nM | subtype selectivity α4β2 over α7 (homomeric α7 nAChR): selective for α4β2 over α7
NC(=O)c1cncc(-c2cc(C3CC4CCC3N4)cnc2F)c1 (centres unmarked) [Compound 5] | ~30 nM and 30 nM |  |  | 0.28 ± 0.03 nM | subtype selectivity α4β2 over α7 (homomeric α7 nAChR): selective for α4β2 over α7
NC(=O)c1cc(-c2cc(C3CC4CCC3N4)cnc2F)ccn1 (centres unmarked) [Compound 6] | 9.8 ± 0.01 nM |  |  | 0.67 ± 0.28 nM | 
Clc1ccc([C@H]2C[C@@H]3CC[C@H]2N3)cn1 [Epibatidine, (1R,2R,4S)-2-(6-chloro-3-pyridinyl)-7-azabicyclo[2.2.1]heptane] |  | full agonist |  |  | Kd (AcAChBP [3]): 14 nM; agonist activity on α3β4 nAChR (recombinant α3β4 nAChR): full agonist
CN1CCC[C@H]1c1cccnc1 [Nicotine] |  |  |  |  | Kd (AcAChBP [4]): 835 nM
c1cnc2cc3c(cc2n1)[C@@H]1CNC[C@H]3C1 [Varenicline] |  |  |  |  | Kd (AcAChBP [4]): 342 nM
